Reference: patent US20230011398A1, “COMBINATION THERAPY APPROACH TO ELIMINATE HIV INFECTIONS” (priority 2019, published 2023)

Columns and labels:
[1] = test system: HIV-1-infected cells and uninfected bystander T cells; experiment: Mixed culture of HIV-1-infected and CellTrace Violet-labeled uninfected T cells; conditions: alone or together, 0.2 μM BMS-626529 present, 48 h
Procedure: To determine the specificity in the killing of HIV-1 infected cells, uninfected CD4 cells were labeled with CellTrace Violet dye (ThermoFisher Scientific) and mixed with HIV-1-infected cells at the ratio of 1:1. The cells were resuspended in RIPMI complete medium containing 0.2 μM BMS-626529, with 0.1 μM IDB, 0.2 μM ABT-263 and 2 μM SAR405 as indicated for 48 h. The cells were incubated with 1 μM FITC-DEVD-FMK, followed by staining with APC-Annexin and analyses by flow cytometry.

[2] = test system: CMT latently infected with HIV-1; experiment: HIV-1 latency reversal in latently infected central memory T cells (p24 staining, HIV-1 mRNA RT-PCR); type: cell-based, human; conditions: latently infected cells, pol RT-PCR
Description: Flow cytometry. The following antibodies from Biolegend were used for flow cytometry: Pacific Blue-anti-mouse CD45 (1:100, 103126, clone 30-F11,) APC-anti-human CD45 (1:100, 304012, clone HI30), Pacific Blue-anti-human CD19 (1:100, 302232, clone HIB19), PE-anti-human CD4 (1:100, 317414, clone OKT4), APC/Fire-750-anti-human CD8 (1:100, 34474, clone SK1), FITC-anti-human CD56 (1:100, 392413, clone QA17A16), Pacific Blue-anti-human CD19 (1:100, 302232, clone HIB19), Pacific Blue-anti-human CD3 (1:100, 300329, clone HIT3a), PE/Cy7-anti-HLA-HLA-DR, DP, DQ (1:100, 361708, clone Tü139), PerCP/Cy5.5-anti-human CD11b (1:100, 301327, clone ICRF44), APC/Fire-750-anti-human CD163 (1:100, 333633, clone GHI/61), PE-anti-human CD123 (1:100, 306005, clone 6H6), Alexa Fluor 488 anti-human CD11c (1:100, 301618, clone 3.9), PerCP/Cy5.5-anti-human CD3 (1:100, 300328, clone HIT3a), PerCP/Cy5.5 anti-human CD123 (1:100, 306016, clone 6H6), FITC-anti-mouse CD45 (1:100, 103108, clone 30-F11), PE/Cy7 anti-human CD197 (CCR7) (1:100, 353226, clone G043H7), PE-anti-human CD45R0 (1:100, 304244, clone UCHL1), FITC-anti-human CD45RA (1:100, 304148, clone HI100) and Alexa Fluor 488-anti-CD68 (1:30, 333812, clone Y1/82A), PerCP/Cy5.5-anti-human CD19 (1:100, 302230, clone HIB19), PE-anti-human CD27 (1:100, 356406, clone M-T271) and Pacific Blue-anti-human IgD (1:100, 348224, clone IA6-2). PE-anti-human CD3 (1:100, 556612, clone SP34) and V50-anti-human CD4 (1:100, 560345, clone RPA-T4) were from BD Biosciences. The cells stained with indicated antibodies were analyzed using a BD LSR II flow cytometer (BD Biosciences). To detect HIV-1 p24, spleen cells from Hu-HSC mice were stimulated with 5 μg/ml PHA (Sigma) and 6 ng/ml IL-2 (Biolegend). The cells were stained for T cell markers, followed by fixation and permeabilization using the Cytofix/Cytoperm buffer (BD Bioscience) and intracellular staining with PE-conjugated anti-p24 (1:30, 6604667, clone KC57, Beckman Coulter). The cells were analyzed by flow cytometry using a BD LSR II flow cytometer (BD Bioscience) and FlowJo software (version 10.5.3, BD Bioscience).
T cell isolation and infection with HIV-1. Peripheral blood mononuclear cells (PBMCs) of anonymous healthy donors from the Gulf Coast Blood Center were used to purify CD4^+ T cells with anti-CD4 MACS beads (Miltenyi Biotec). CD3^+CD4^+CD45RA^+CD45RO^−CCR7^+ naïve T cells, CD3^+CD4^+CD45RA^−CD45RO^+CCR7+ central memory T cells (CMT) and CD3^+CD4^+CD45RA^−CD45RO^+CCR7^− effector memory T cells (EMT) were sorted using a BD FACSAria flow cytometer (BD Bioscience). Naive CD4^+ T cells were stimulated with 5 μg/ml PHA and 6 ng/ml IL-2 in RPMI complete medium for 2 days to generate activated CD4^+ T cells. Sorted T cell subsets or activated T cells were infected with HIV-1 CXCR4-tropic NL4-3 or CCRS-tropic AD8 (both virus clones were obtained from the NIH AIDS Reagent Program) at the indicated MOI for 2 h. The cells were washed with PBS and cultured in RPMI complete medium containing 30 nM CCL19 (Biolegend) and 0.3 ng/ml IL-2 (Biolegend) and for 4 days to establish latent HIV infection as described.
Naïve T cells, activated T cells, CMT or EMT with or without infection with HIV-1 (NL4-3, 1 MOI) were cultured for 4 days in the presence of 30 nM CCL19 and 0.3 ng/ml IL-2 for 4 days to establish latent HIV infection. The cells with or without HIV-1 infections were stimulated with 0.1 μM IDB (Ingenol-3,20-dibenzonate, ENZO Life Sciences) in the presence of 0.2 μM ABT-263 (Adooq Bioscience), 2 μM SAR405 (MedChemExpress) or 10 μM chloroquine (CQ, Sigma) as indicated for 48 h. The cells were then incubated with 1 μM FITC-DEVD-FMK (Biovision), followed by staining with APC-Annexin V (Biolegend) and intracellular staining with PE-anti-HIV p24. The cells were analyzed by flow cytometry. The percentage of cell death was calculated by the loss of live cells negative for annexin V and DEVD staining by comparing treated and untreated groups: (untreated—treated)/untreated x 100%. […]

In the case of `CC1=C[C@]23C(=O)[C@@H](C=C(COC(=O)c4ccccc4)[C@@H](O)[C@]2(O)[C@H]1OC(=O)c1ccccc1)[C@H]1[C@@H](C[C@H]3C)C1(C)C` [IDB, ingenol 3,20-dibenzoate], the “killing of HIV-1-infected cells in mixed culture” value [1] is reported as “killed HIV-1-infected cells”, the “killing of uninfected bystander cells in mixed culture” value [1] is reported as “resistant” and the “latency reversal observed by expression of HIV-1 mRNA after stimulation” value [2] is reported as “Latency reversal was also observed”.
